# Reference: patent publication US20210205292A1, “INHIBITORS OF CREB-CBP INTERACTION FOR TREATMENT OF LEUKEMIA” (The Board of Trustees of the Leland Stanford Junior …, priority 2016, published 2021)
# Entries after “also recorded” stand apart in the source; their conditions may differ.
# Tests used:
# [1] = biological target: T1, CREB/CBP association (Homo sapiens, UniProt Q92793); assay: Anti-CBP immunoprecipitation of CREB-transfected HEK293 cells; assay type: cell-based; details: HEK293 lysates or cells, 5 μM, 1 hour
# T1 construct: endogenous in cells; host or cells: HEK293 cells (CBP endogenous; CREB from a transfected plasmid)
# Experimental: Mutation of Arginine-600 to Alanine reduced binding of Compound A by ˜45% at a concentration of 5 μM, while a KIX mutant lacking amino acids 586-602 reduced binding by ˜70%. Panel C) Binding model of Compound A to CBP KIX domain. […] Panel E). Two KG-1 cell lines were generated in which luciferase was expressed either under the control of a CREB-driven promoter (CRE) or a CMV-driven promoter (CMV). These two cell lines were each treated with a range of Compound A or Analog B concentrations for 6 hours. […] HEK293 cells were transfected with a plasmid expressing CREB. Cells were treated with Compound A (A, 5 μM, lane 3) or DMSO vehicle (D) for 1 hour. Total lysates of transfected HEK293 cells were immunoprecipitated using anti-CBP antibody. Compound A (A, 5 μM) was added during anti-CBP Immunoprecipation process (lane 1). Immunoprecipitates (CBP-IP) and total lysates were analyzed by immunoblotting for phospho-CREB (p-CREB) and CBP.
# To test the ability of Compound A to disrupt CREB-CBP binding in cells, a split Renilla luciferase complementation assay was performed. […] This early timepoint was selected to permit accurate reporter gene activity measurement prior to the onset of anticipated global cell dysfunction or death induced by Compound A. Treatment with 3 μM Compound A reduced luciferase activity by 33.2±7.7% at this timepoint. […]
# [2] = test system: human AML patient sample cells (#186); assay: Primary AML patient sample (#186) xenograft in NSG mice; assay type: in vivo; details: 2.3 mg/kg IV once daily
# Experimental: For AML xenograft mouse experiments, HL-60 cells (2×10^6) expressing firefly luciferase and GFP, or cryopreserved human AML patient cells (5×10^6), were injected through the tail vein into NOD.Cg-prkdc^scid Il2rg^tm1WjlSzJ (NSG) mice. Mice were then Compound A or 10% DMSO, injected intravenously by tail vein daily, until death or an endpoint was reached (moribundity) in accordance with the animal care institutional guidelines. All mouse experiments were subject to institutional approval by Stanford University Institutional Animal Care and Use Committee. Leukemia progression in mice at the indicated time points was monitored using an in vivo IVIS 100 bioluminescenceoptical imaging system (Xenogen Corporation). D-Luciferin (Promega) dissolved in sterile phosphate-buffered saline was injected intraperitoneally at a dose of […], 15 minutes before measuring the luminescent signal. General anesthesia was induced with […] and continued during the procedure using a nose cone. […]
# To examine the efficacy of CREB inhibition in an in vivo model of AML, 4-6 week old NOD.Cg-Prkdc^scid Il2rg^tm1WjlSzJ (NSG) mice were tail-vein injected with HL-60 AML cells (2×10^6) expressing Firefly luciferase and GFP. […] The efficacy of Compound A was also assessed in a mouse xenograft model using primary AML cell sample (patient sample #186), using similar methods.
# T1 sequence (Q92793 whole entry): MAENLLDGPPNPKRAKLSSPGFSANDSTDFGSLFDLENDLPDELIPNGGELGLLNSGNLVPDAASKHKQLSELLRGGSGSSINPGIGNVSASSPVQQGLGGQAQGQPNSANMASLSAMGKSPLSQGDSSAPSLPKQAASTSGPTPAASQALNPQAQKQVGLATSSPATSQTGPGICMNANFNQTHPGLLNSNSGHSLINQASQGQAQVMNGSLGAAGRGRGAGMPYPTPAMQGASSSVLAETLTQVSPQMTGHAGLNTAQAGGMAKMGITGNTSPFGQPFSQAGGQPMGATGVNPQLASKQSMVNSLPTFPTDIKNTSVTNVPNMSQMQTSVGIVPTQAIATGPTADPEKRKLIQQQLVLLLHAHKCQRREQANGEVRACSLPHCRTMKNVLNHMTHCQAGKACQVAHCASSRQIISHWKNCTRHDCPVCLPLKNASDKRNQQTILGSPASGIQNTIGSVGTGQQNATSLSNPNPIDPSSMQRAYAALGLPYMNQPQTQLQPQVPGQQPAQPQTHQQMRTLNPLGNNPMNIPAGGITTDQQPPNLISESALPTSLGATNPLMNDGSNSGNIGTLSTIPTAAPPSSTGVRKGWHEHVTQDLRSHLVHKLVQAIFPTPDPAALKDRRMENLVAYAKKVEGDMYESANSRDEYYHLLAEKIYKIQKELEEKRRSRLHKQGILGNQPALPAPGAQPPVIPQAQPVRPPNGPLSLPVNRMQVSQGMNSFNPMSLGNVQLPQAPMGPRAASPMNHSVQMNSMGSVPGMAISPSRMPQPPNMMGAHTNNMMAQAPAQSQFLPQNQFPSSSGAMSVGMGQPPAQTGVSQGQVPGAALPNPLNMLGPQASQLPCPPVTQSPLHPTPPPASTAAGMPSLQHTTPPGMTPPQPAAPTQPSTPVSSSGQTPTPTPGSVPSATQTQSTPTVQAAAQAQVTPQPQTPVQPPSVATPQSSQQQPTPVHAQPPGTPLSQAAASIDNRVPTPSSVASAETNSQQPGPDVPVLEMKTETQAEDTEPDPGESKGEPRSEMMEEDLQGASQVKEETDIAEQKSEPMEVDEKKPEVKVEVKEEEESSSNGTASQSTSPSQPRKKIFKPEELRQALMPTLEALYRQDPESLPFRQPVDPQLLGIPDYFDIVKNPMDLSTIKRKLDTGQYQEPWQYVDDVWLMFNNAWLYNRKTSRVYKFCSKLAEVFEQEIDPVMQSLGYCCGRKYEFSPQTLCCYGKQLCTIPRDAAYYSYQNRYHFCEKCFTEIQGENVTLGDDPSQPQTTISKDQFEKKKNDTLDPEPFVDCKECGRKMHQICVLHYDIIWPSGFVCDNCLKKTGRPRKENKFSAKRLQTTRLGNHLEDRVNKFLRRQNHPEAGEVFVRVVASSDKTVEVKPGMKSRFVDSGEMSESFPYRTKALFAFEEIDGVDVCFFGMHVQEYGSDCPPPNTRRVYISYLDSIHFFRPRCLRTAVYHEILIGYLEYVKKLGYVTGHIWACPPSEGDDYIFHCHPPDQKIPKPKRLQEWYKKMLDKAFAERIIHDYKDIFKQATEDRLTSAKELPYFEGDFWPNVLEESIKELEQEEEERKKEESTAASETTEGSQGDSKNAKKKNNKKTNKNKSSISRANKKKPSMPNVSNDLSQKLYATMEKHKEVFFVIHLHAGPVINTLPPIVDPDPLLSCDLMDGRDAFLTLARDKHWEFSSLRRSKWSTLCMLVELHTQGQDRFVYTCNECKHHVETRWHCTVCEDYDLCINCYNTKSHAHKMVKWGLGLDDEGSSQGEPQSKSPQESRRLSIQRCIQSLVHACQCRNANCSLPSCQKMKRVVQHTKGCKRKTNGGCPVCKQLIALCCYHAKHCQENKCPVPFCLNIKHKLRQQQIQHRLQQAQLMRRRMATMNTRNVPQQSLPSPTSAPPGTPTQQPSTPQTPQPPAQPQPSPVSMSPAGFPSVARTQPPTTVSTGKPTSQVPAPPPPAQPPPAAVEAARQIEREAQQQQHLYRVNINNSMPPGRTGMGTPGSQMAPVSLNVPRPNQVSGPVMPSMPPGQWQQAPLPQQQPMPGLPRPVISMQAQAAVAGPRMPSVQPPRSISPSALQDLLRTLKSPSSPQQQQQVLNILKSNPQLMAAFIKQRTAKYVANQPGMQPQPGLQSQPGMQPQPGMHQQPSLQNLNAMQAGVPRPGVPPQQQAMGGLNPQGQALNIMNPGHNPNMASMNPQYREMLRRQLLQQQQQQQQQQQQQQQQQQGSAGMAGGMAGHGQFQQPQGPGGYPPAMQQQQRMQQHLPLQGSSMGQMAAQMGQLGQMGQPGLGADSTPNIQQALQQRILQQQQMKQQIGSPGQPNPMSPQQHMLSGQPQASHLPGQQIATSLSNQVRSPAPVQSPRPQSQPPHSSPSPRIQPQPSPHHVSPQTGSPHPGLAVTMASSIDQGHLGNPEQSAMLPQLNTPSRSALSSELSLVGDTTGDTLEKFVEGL
structure (smiles),measurement,setting,value
"N#Cc1ccc(NC(=O)c2cc3ccccc3cc2O)cc1 [Compound A, N-(4-cyanophenyl)-3-hydroxy-2-naphthamide]",binding of CREB to CBP (immunoprecipitation),[1],inhibits CREB/CBP association; also recorded: prevented binding of CREB to CBP
same,toxicity,[2]; 80 days,None of the mice treated for 80 days experienced any toxicity
same,survival (Kaplan-Meier),[2]; versus DMSO-treated mice,significant survival advantage
